A word on the EC50: it is the concentration giving half of the maximal effect.

For the assay, the target named is T1, GLP-1R (Homo sapiens, UniProt P43220).
T1 construct: host or cells: CRE-bla CHO-K1
T1 sequence (P43220 24-463): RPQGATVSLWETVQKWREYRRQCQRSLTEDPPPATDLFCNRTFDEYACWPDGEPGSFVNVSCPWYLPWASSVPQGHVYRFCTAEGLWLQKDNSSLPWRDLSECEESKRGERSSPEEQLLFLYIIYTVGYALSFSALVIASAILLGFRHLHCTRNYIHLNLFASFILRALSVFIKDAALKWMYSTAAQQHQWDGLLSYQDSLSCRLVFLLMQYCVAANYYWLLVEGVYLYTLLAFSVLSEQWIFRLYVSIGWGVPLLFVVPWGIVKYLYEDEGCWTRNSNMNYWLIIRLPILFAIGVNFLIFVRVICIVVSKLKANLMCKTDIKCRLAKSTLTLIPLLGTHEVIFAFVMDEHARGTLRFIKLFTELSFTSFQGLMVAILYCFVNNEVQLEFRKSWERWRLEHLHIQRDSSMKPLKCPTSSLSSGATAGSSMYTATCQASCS
T1 sequence (P01275 100-127 partner limits assumed): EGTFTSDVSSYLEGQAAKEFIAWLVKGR
Kind of assay: EC20 GLP-1(9-36) PAM cAMP assay: dose response of compound in the presence of fixed concentration of GLP-1(9-36). The assay is classed as cell-based. Particulars: GLP-1R CRE-bla CHO-K1 cells, compound dose response with fixed GLP-1(9-36), 30 min at 37° C. The protocol: EC20 GLP-1(9-36) PAM cAMP assay: dose response of compound in the presence of fixed concentration of GLP-1 (9-36).
GLP-1R CRE-bla CHO-K1 cells cultured in growth medium (DMEM-High glucose, 10% dialyzed FBS, 0.1 mM NEAA, 25 mM Hepes, 100 U/mL penicillin/100 μg/mL streptomycin, 5 μg/mL Blasticidin, 600 μg/mL Hygromycin) were trypsinized and plated in suspension into 384 well white flat bottom plates at 5000 cells/well in 12 μL assay buffer (Hanks Balanced Salt solution, 10 mM hepes, 0.1% BSA, pH 7.4). A 5× compound dose response curve (12-point) was generated in assay buffer containing 1.5 mM IBMX, 4% DMSO. GLP-1(9-36) was diluted to 4.2 μM in assay buffer containing 1.5 mM IMBX and 4% DMSO. The 5× compound dose response was added (3 μL), followed by 0.5 μL of GLP-1(9-36) and cells were incubated for 30 min at 37° C. Direct detection of cAMP was carried out using DiscoveRx HitHunter cAMP kit according to manufacturer's instructions and luminescence was read using a SpectraMax M5 plate reader. Luminescence was converted to total cAMP using a cAMP standard curve and data was analyzed by non-linear regression to determine the EC50 and Emax.
GLP-1(7-36): […]-NH2 (SEQ ID NO: GLP-1(9-36): […]-NH2(SEQ ID NO: 3) GLP-1(7-36) was purchased from GenScript. GLP-1(9-36) was purchased from Biopeptide Co., Inc.
(In general: Changes in cAMP serve as a functional read-out for many G protein-coupled receptors.)
Take `CCCCCCCOCCc1ccc(-c2nc(-c3ccc(C(NC(=O)c4ccc(C(C)(C)C)cc4)C(=O)O)cc3)no2)cc1` (centres unmarked) [Compound 71]: the EC50 was 2.5 to 5 µM. `CCCCCCCOc1ccc(-c2cnc(-c3ccc(C[C@H](NC(=O)c4ccc(C(C)(C)C)s4)C(=O)N[C@H]4CCC[C@H]4C(=O)O)cc3)nc2)cc1` [Compound 382]: the EC50 was in the range of 0.8 to 2.5 µM. The result for `CCCCCCCOc1ccc(-c2cnc(-c3ccc(C[C@H](NC(=O)c4ccc(C(C)(C)C)cc4)C(=O)NC[C@H]4CCNC4)cc3)nc2)cc1` [Compound 413] reads 5 to 10 µM; that for `CCCCCCCOc1ccc(-c2cnc(-c3ccc(C[C@H](NC(=O)c4ccc(C(C)(C)C)s4)C(=O)N[C@@H](CC(=O)NC4CC4)C(=O)O)cc3)nc2)cc1` [Compound 514], under 0.8 µM. On to `CCCCCCCOc1ccc(-c2cnc(-c3ccc(C[C@H](NC(=O)c4ccc(C(C)(C)C)cc4)C(=O)NC(CCS(C)(=O)=O)C(=O)O)cc3)nc2)cc1` (some centres unmarked) [Compound 570], for which the EC50 is under 0.8 µM.

Turning to `CCCCCCCOc1ccc(-c2cnc(-c3ccc(C[C@H](NC(=O)c4ccc(C(C)(C)C)cc4)C(=O)N[C@@H](Cc4cn(C)cn4)C(=O)O)cc3)nc2)cc1` [Compound 576], the concentration giving a half-maximal response (EC50) lay within 0.8 to 2.5 µM. With `CCCCCCCOc1ccc(-c2cnc(-c3ccc(C[C@H](NC(=O)c4ccc(C(C)(C)C)s4)C(=O)NC(C(=O)O)c4ccc(C)cc4)cc3)nc2)cc1` (some centres unmarked) [Compound 617], the EC50 was under 0.8 µM. `CC(C)(C)c1ccc(C(=O)N[C@@H](Cc2ccc(-c3ncc(C4CCC(C(C)(C)C)CC4)cn3)cc2)C(=O)NCCC(=O)O)cc1` (some centres unmarked) [Compound 674]: the EC50 is 5 to 10 µM. The result for `CCCCCCCOC1CCN(c2cnc(-c3ccc(C[C@H](NC(=O)c4ccc(C(C)(C)C)cc4)C(=O)NCCC(=O)O)cc3)nc2)CC1` [Compound 693] reads 5 to 10 µM. As to `C/C=C/CCCOc1ccc(-c2cnc(-c3ccc(C[C@H](NC(=O)c4ccc(C(C)(C)C)cc4)C(=O)NCCC(=O)O)cc3)nc2)cc1` [Compound 714], the EC50 lay within 2.5 to 5 µM. The result for `CCCC/C=C/COc1ccc(-c2cnc(-c3ccc(C[C@H](NC(=O)c4ccc(C(C)(C)C)cc4)C(=O)NCCC(=O)O)cc3)nc2)cc1` [Compound 715] reads 2.5 to 5 µM; that for `CCCCCCCOc1ccc(-c2cnc(-c3ccc(C[C@H](NC(=O)c4ccc(OC(C)C)cc4)C(=O)N[C@H](C)C(=O)O)cc3)nc2)cc1` [Compound 820], 2.5 to 5 µM.

With `CCCCCCCOc1ccc(-c2cnc(-c3ccc(C[C@H](NC(=O)c4ccc(OC(F)(F)F)cc4)C(=O)N[C@H](C)C(=O)O)cc3)nc2)cc1` [Compound 821], the EC50 was 0.8 to 2.5 µM. In the case of `CCCCCCCOc1ccc(-c2cnc(-c3ccc(C[C@H](NC(=O)[C@H]4CC[C@H](C(C)(C)C)CC4)C(=O)N4CC[C@H](C(=O)O)C4)cc3)nc2)cc1` [Compound 858], the EC50 is 0.8 to 2.5 µM.

With `CCCCCCCOc1ccc(-c2cnc(-c3ccc(C[C@H](NC(=O)c4oc(C(C)(C)C)cc4C)C(=O)N4CC[C@H](C(=O)O)C4)cc3)nc2)cc1` [Compound 866], the EC50 lay within 2.5 to 5 µM. In the case of `CC(C)(C)CCCOc1ccc(-c2cnc(-c3ccc(C[C@H](NC(=O)c4ccc(C(C)(C)C)s4)C(=O)NC(C(=O)O)C(O)c4ccccc4)cc3)nc2)cc1` (some centres unmarked) [Compound 944], the EC50 is under 0.8 µM. In the case of `C[C@@H](NC(=O)[C@H](Cc1ccc(-c2ncc(-c3ccc(OCc4ccccc4)cc3F)cn2)cc1)NC(=O)c1ccc(C(C)(C)C)s1)C(=O)O` [Compound 1024] it was 0.8 to 2.5 µM.

Source of the values: US10259823B2, “GLP-1 receptor modulators” (Celgene International II SÀRL, priority 2013, dated 2019).
